# System: Candida albicans
# Assay: in vivo oral protection of mice inoculated with a lethal infection of Candida albicans
# Conditions: oral administration to mice with lethal Candida albicans infection, survival of treated group after death of untreated group, 48 hours observation; for ED50: read-out: PD50 (dose level providing 50% protection)
# Description: The in vivo evaluation of the compounds can be carried out at a series of dose levels by intraperitoneal or intravenous injection or by oral administration, to mice which are inoculated with a strain of Candida albicans. Activity is based on the survival of a treated group of mice after the death of an untreated group of mice following 48 hours observation. The dose level at which the compound provides 50X protection against the lethal effect of the infection is noted.
# The compounds of the Examples were tested in vivo by oral administration to mice inoculated with a lethal infection of Candida albicans according to the procedures described herein. The dose levels providing 50% protection (PD50) were as follows: […]
SMILES,ED50 [mg/kg],PD50 (dose level providing 50% protection) [mg/kg/p.o.]
"OC(Cc1ncc[nH]1)(Cn1cncn1)c1ccc(Cl)cc1Cl (stereo not drawn) [Example 4, 2-(2,4-Dichlorophenyl)-1-(imidazol-2-yl)-3-(1H-1,2,4-triazol-1-yl)propan-2-ol]",1.2,
"Cn1cnnc1CC(O)(Cn1cncn1)c1ccc(Cl)cc1Cl (stereo not drawn) [Example 3 (3), 2-(2,4-Dichlorophenyl)-1-(4-methyl-1,2,4-triazol-3-yl)-3-(1H-1,2,4-triazol-l-yl)propan-2-ol]",,3.5
"Cn1ccnc1CC(O)(Cn1cncn1)c1ccc(Cl)cc1Cl (stereo not drawn) [Example 5, 2-(2,4-Dichlorophenyl)-1-(1-methylimidazol-2-yl)-3-(1H-1,2,4-triazol-1-yl)propan-2-ol dimesylate]",1,
"Cn1nnnc1CC(O)(Cn1cncn1)c1ccc(Cl)cc1Cl (stereo not drawn) [Example 1, 2-(2,4-Dichlorophenyl)-1-(1-methyltetrazol-5-yl)-3-(lH-1,2,4-triazol-l-yl)propan-2-ol]",0.1,
"OC(Cc1ncn[nH]1)(Cn1cncn1)c1ccc(Cl)cc1Cl (stereo not drawn) [Example 2, 2-(2,4-Dichlorophenyl)-1-(1,2,4-triazol-3-yl)-3-(1H-1,2,4-triazol-1-yl)propan-2-ol, dioxalate]",2.2,
"Cn1ncnc1CC(O)(Cn1cncn1)c1ccc(Cl)cc1Cl (stereo not drawn) [Example 3 (2), 2-(2,4-Dichlorophenyl)-1-(2-methyl-1,2,4-triazol-3-yl)-3-(1H-1-2,4-triazol-1-yl)propan-2-ol]",,20

# From patent publication EP0115400A1, “Triazole antifungal agents” (Pfizer Limited, priority 1983, dated 1984)
